{"source": "patent US11166946B2", "about": "(CURATIS AG, priority 2018, dated 2021)", "key": {"[1]": {"conditions": "oral administration; biphasic clearance; cited from earlier work"}, "[2]": {"tested_on": "mouse", "conditions": "in vivo, cited from earlier work"}, "[3]": {"tested_on": "mouse, rat and dog", "conditions": "cited from earlier work"}, "[4]": {"conditions": "single administration 300 mg, human subjects; cited from earlier work"}, "[5]": {"tested_on": "rat", "conditions": "in vivo, cited from earlier work"}, "[6]": {"tested_on": "platelets", "conditions": "in vitro; cited from earlier work"}, "[7]": {"tested_on": "patients with peripheral vascular disease", "conditions": "300 mg, PO, t.i.d., 18-month period, 2,304 patients; cited from earlier work"}, "[8]": {"tested_on": "patients presenting with migraine with aura", "test": "Randomized, double-blind, placebo controlled crossover study, aura events", "format": "in vivo, human", "experimental": "A multi-center, randomized, double-blind, placebo controlled crossover study was conducted with picotamide. […] The overall study duration was 7×4 weeks. […] “Aura Events” was one of the parameters that was measured. […] These observations were particularly observed in a subgroup of patients (moderate patients) that on average had 3 to 6 aura events per month prior to study enrollment. Patients with less than 3 aura events per month could be considered mild patients and would therefore benefit to a lesser degree from treatment. Patients with 7 or more aura events could be considered severe patients that are difficult to treat."}}, "note": "Read-outs that look alike come from different tables or passages of the source."}
{"smiles": "COc1ccc(C(=O)NCc2cccnc2)cc1C(=O)NCc1cccnc1", "note": "[picotamide monohydrate]", "values": [{"measurement": "plasma clearance half-life, first rapid phase", "setting": "[1]", "value": "about 2 hours"}]}
{"smiles": "COc1ccc(C(=O)NCc2cccnc2)cc1C(=O)NCc1cccnc1", "note": "[picotamide, 4-methoxy-N,N′-bis(pyridin-3-ylmethyl)benzene-1,3-dicarboxamide]", "values": [{"measurement": "LD50", "setting": "[2]; ip", "value": "942 ± 29", "unit": "mg/kg"}, {"measurement": "LD50", "setting": "[2]; po", "value": "> 3,000 mg/kg"}, {"measurement": "tolerability after subacute and chronic treatment", "setting": "[3]; IP and PO, mouse, rat and dog", "value": "well tolerated"}, {"measurement": "embryotoxic or teratogenic effects", "setting": "[3]; in vivo", "value": "did not induce embryotoxic or teratogenic effects"}, {"measurement": "time to reach maximum concentration (Tmax)", "setting": "[4]", "value": "30 to 45", "unit": "min"}, {"measurement": "LD50", "setting": "[5]; ip", "value": "685 ± 27", "unit": "mg/kg"}, {"measurement": "LD50", "setting": "[5]; po", "value": "> 3,000 mg/kg"}, {"measurement": "inhibition of platelet aggregation, degranulation and TxB2 production", "setting": "[6]", "value": "inhibits in vitro platelet aggregation, degranulation, and TxB2 production, in a dose dependent manner"}, {"measurement": "effectiveness and safety", "setting": "[7]", "value": "effective and well-tolerated antiplatelet drug with an incidence of adverse reactions similar to that of placebo"}, {"measurement": "number of auras (aura events)", "setting": "[8]; 300 mg twice daily 3×4 weeks, then placebo (Sequence A)", "value": "reduces the number of auras even after picotamide administration"}, {"measurement": "duration of continued improvement after switch to placebo", "setting": "[8]; Sequence A, after 3×4 weeks of picotamide", "value": "continued to improve for another 2×4 weeks"}]}
